Measured values as given in US20250169715A1, “USE OF BLINK REFLEX FOR HEADACHE RESPONSE MONITORING AND/OR TREATMENT SELECTION” (priority 2022, published 2025).

Tested on: patients with headache/migraine
Test: Blink reflex measuring device: blink-associated parameters before and after treatment, by treatment modality
Type: in vivo, human
Source text: In embodiments, the one or more blink-associated parameters are selected from: • (a) latency, optionally in milliseconds, comprising a time differential between stimulation and eyelid movement, e.g., one or more of upper eyelid or lower eyelid; • (b) differential latency, optionally in milliseconds, comprising a time differential between the start of ipsilateral eye movement and the start of contralateral eye movement; • (c) delta 30, comprising a time difference between ipsilateral eye and contralateral eye movement; • (d) eyelid excursion, optionally in pixels, comprising a distance traveled by the eyelid from the tonic lid position to closed position; • (e) initial lid velocity, optionally in pixels/msec, comprising an average eyelid speed following start of eyelid movement, e.g., the first about 5 frames, the first about 7 frames, or the first about 10 frames; • (f) time to close, optionally in log scale, comprising a time for lid to travel from tonic lid position to the closed position; • (g) time to open, optionally in log scale, comprising a time for lid to travel from closed position back to tonic lid position; • (h) time under threshold, optionally in log scale, comprising a time that the eyelid spends below the threshold position; • (i) number of oscillations, comprising cycles of up and down upper eyelid movement after a stimulated blink; • (j) total blink time, optionally in log scale, comprising a time from start of eyelid movement until it returns to its tonic lid position; • (k) number of blinks; • (l) blink rate, optionally per minute; • (m) area under curve, optionally in pixels; • (n) maximum closing velocity, optionally in […], comprising a maximum velocity during eyelid closure; • (o) maximum opening velocity, optionally in […], comprising a maximum velocity during eyelid opening; and • (p) time to first oscillation, optionally in log scale, comprising the elapsed time between the eyelid returning within threshold of a tonic position for a stimulated blink and the onset of the next unstimulated blink.
In this study, a population of male and female migraine patients are assessed for blink reflex response using the blink reflex measuring device. The patients in this study are tested when they visit the doctor during their routine office visits and/or before and after a doctor prescribed therapeutic intervention.
Blink reflex measuring device was used for collecting multiple blink-associated parameters from patients with headache/migraine before and after treatment undergoing treatment.
Blink reflex measuring device was used for collecting multiple blink-associated parameters from patients with headache/migraine before and after undergoing different treatments. The different treatments were intravenous (IV) ketamine infusion therapy, sphenopalatine ganglion (SPG) block+peripheral nerve block (PNB), and IV ketamine+SPG+PNB. The results are shown in TABLE 2, FIGS. 34-6D and FIG. 7.
TABLES 4-6 show the variable changes based on right and left eye by treatment modality: intravenous (IV) ketamine infusion therapy (TABLE 4); sphenopalatine ganglion (SPG) block+peripheral nerve block (PNB) (TABLE 5); and IV ketamine+SPG+PNB (TABLE 6). It is important to note that whereas FIGS. 34-6D and FIG. 7 show the changes based on treatment modality of each variable and show the overall changes predicated on both right and left eye, TABLES 4-6 break down the variables by right and left eye changes.

[1] = left eye, post treatment, Table 4
[2] = post-treatment average, patients with headache/migraine, by treatment modality
[3] = right eye, post treatment, Table 4

Structure (SMILES): CNC1(c2ccccc2Cl)CCCCC1=O (stereo not drawn) [ketamine]
- Blink Rate, Left Eye Post Tx (left eye, post treatment): 89.415 per min
- Blinks, Left Eye Post Tx (left eye, post treatment): 5.945 qty
- Delta 30, Left Eye Post Tx (left eye, post treatment): 9.328 ms
- Differential Latency, Left Eye Post Tx (left eye, post treatment): 4.625 ms
- Excursions, Left Eye Post Tx (left eye, post treatment): 91.548 pixels
- Latency, Left Eye Post Tx (left eye, post treatment): 53.958 ms
- Oscillations Rate, Left Eye Post Tx (left eye, post treatment): 2.293 per min
- Oscillations, Left Eye Post Tx (left eye, post treatment): 9.914 no.
- Time to Close, Left Eye Post Tx (left eye, post treatment): 27.686 ms
- Time to First Oscillation, Left Eye Post Tx (left eye, post treatment): 7.301 Ln ms
- Time to Open, Left Eye Post Tx (left eye, post treatment): 286.813 ms
- Area Under the Curve, Left Eye Post Tx [1]: 10.250 pixels
- Time Under 20, Left Eye Post Tx [1]: 5.228 Ln ms
- Blink reflex differences pre and post treatment via Blink Reflex Measuring Device (patients having a migraine, p=0.05): Statistical differences
- Area Under Curve, POST-TX AVERAGE [2]: 29522.632 pixels
- Blink Rate, POST-TX AVERAGE [2]: 83.490 per min
- Blinks, POST-TX AVERAGE [2]: 5.345 qty
- Delta 30, POST-TX AVERAGE [2]: 7.435 ms
- Differential Latency, POST-TX AVERAGE [2]: 6.145 ms
- Excursion, POST-TX AVERAGE [2]: 88.575 pixels
- Latency, POST-TX AVERAGE [2]: 49.827 ms
- Oscillations, POST-TX AVERAGE [2]: 10.273 no.
- Time Under 20, POST-TX AVERAGE [2]: 5.237 Ln ms
- Time to Close, POST-TX AVERAGE [2]: 29.930 ms
- Time to First Oscillation, POST-TX AVERAGE [2]: 7.412 Ln ms
- Time to Open, POST-TX AVERAGE [2]: 307.108 ms
- Blink Rate, Right Eye Post Tx (right eye, post treatment): 73.691 per min
- Blinks, Right Eye Post Tx (right eye, post treatment): 5.170 qty
- Delta 30, Right Eye Post Tx (right eye, post treatment): 5.766 ms
- Differential Latency, Right Eye Post Tx (right eye, post treatment): 5.438 ms
- Excursions, Right Eye Post Tx (right eye, post treatment): 92.605 pixels
- Latency, Right Eye Post Tx (right eye, post treatment): 52.583 ms
- Oscillations Rate, Right Eye Post Tx (right eye, post treatment): 1.966 per min
- Oscillations, Right Eye Post Tx (right eye, post treatment): 8.606 no.
- Time to Close, Right Eye Post Tx (right eye, post treatment): 31.119 ms
- Time to First Oscillation, Right Eye Post Tx (right eye, post treatment): 7.517 Ln ms
- Time to Open, Right Eye Post Tx (right eye, post treatment): 258.318 ms
- Area Under the Curve, Right Eye Post Tx [3]: 10.157 pixels
- Time Under 20, Right Eye Post Tx [3]: 5.099 Ln ms
